Assays:
Assay type in all cases: cell-based
EP2 [1] = molecular target: T1, EP2 (Homo sapiens, UniProt P43116); test: cAMP in non-labouring myometrial cells with/without oxytocin pre-treatment; details: OT pre-treatment 1 hour, 100 nM; butaprost 10 μM, AH13205 10 μM, PGN9856i 100 nM; FIG. 10
T1 construct: primary human myocytes cultured from term pregnant, non-labouring, myometrium; endogenous in cells; host or cells: primary human myometrial cells (myocytes) cultured from pregnant myometrium
Experimental: Myometrial cells with/without oxytocin (OT) pre-treatment (1 hour, 100 nM) were treated with IBMX (5 minutes, 0.5 mM) before 1 minute stimulation with IBMX with/without either DMSO, butaprost (10 μM), AH13205 (10 μM) or PGN9856i (100 nM). cAMP concentrations were normalised to protein. Each patient's data normalised to butaprost response and shown as mean±SEM, n=6. One-sample t-test: #p<0.05. ##p<0.01. One-way ANOVA with Sidak's multiple comparison post-hoc test: **p<0.01.
Confluent myometrial cells were treated with/without OT (100 nM) for 1 hour before 3 PBS washes and the addition of […] IBMX (3-isobutyl-1-methylxanthine) in PBS for 5 minutes at 37° C. This was exchanged for 0.5 μM IBMX in PBS plus either DMSO, butaprost (10 μM), AH13205 (10 μM) or PGN9856i (100 nM) for […]. Cells were lysed in Cisbio cAMP lysis buffer with 0.2% TritonX-100 and centrifuged for 15 minutes at 16,000 g. Lysates were normalized to protein concentration determined by Coomassie (Bradford) Protein Assay Kit and analysed as per manufacturers' protocol (Cisbio Gαs dynamic assay) using a PHERAstar FSX.

EP2 [2] = molecular target: T1, EP2; test: PGE2 release in myometrial cells with/without oxytocin pre-treatment; details: for effect of OT pre-treatment on ligand-induced PGE2 release: OT 1 hour, 100 nM, then ligand 6 hours, butaprost 10 μM, PGN9856i 100 nM, FIG. 12
Experimental: Myometrial cells stimulated with either DMSO, butaprost (10 μM), AH13205 (10 μM) or PGN9856i (100 nM) for 6 hours, with/without OT pre-treatment (1 hour, 100 nM). Tissue culture media collected and used for ELISA. PGE2 concentrations normalised to butaprost. Data shown as mean±SEM from at least 3 independent experiments. One-way ANOVA with Dunnett's multiple comparison post-hoc test. One-sample t-test: *p<0.05.
Myometrial cells stimulated with DMSO or PGN9856i (100 nM) for 6 hours, with/without OT pre-treatment (1 hour, 100 nM). Tissue culture media collected and used for ELISA. PGE2 concentrations normalised to vehicle. Data shown as mean±SEM from at least 3 independent experiments. Unpaired t-test: *p<0.05.
Myometrial cells were treated for 6-hours with EP2 agonist (butaprost 10 μM, AH13205 10 μM or PGN9856i 100 nM) or DMSO with/without 1-hour OT (100 nM) pre-treatment. 1 mL media was collected from COX-2 experiments and immediately frozen at −80 degrees Celsius. Samples were defrosted at room temperature and vortexed before quantification of IL-6 concentrations via ELISA as per manufacturer's instructions (Enzo Lifesciences).

EP2 [3] = molecular target: T1, EP2; test: Intracellular cAMP in primary human myocytes from term pregnant non-labouring myometrium; details: butaprost 10 μM, AH13205 10 μM, PGN9856i 100 nM, FIG. 5
Experimental: In the myometrium EP2 is an important regulator of parturition. To assess if PGN9856i, butaprost and AH13205 induce similar second messenger profiles in the myometrium as HEK 293 cells, primary human myocytes cultured from term pregnant, non-labouring, myometrium, were treated with each ligand and intracellular cAMP, calcium and PGE2 release was measured.
Myometrial tissue was acquired at St. Mary's hospital, Queen Charlotte and Chelsea hospital and Charing Cross hospital, London. Tissue was obtained from women provided with informed written consent with the approval from the Riverside Research Ethics Committee (RREC 3357, 1997-5089, 19/LO/1657) and experiments were carried out under the committee's guidelines and recommendations. Tissues were obtained from term (38+0-40 weeks gestation) pregnant women undergoing elective caesarean from the upper margin of the incision made at the lower segment of the uterus, before or after the onset of labor. Tissues taken from women in early labour (<3 cm cervical dilation) or late labour (>3 cm cervical dilation) with/without induction with syntocinon, an oxytocin analogue. Tissue was only taken from uncomplicated, singleton pregnancies.
Tissue was stored at 4° C. in phosphate buffered saline until fine dissection with scalpels and dissociation at 37° C. for 1 hour in a sterile-filtered mix of Dulbecco's modified Eagle's medium (DMEM) (Sigma Aldrich)/Ham's F-12 Nutrient Mixture (Sigma Aldrich) and serum-free DMEM (Sigma Aldrich) (1:1 v/v) containing collagenase 1A (Sigma Aldrich)(1 mg/ml), collagenase X (Sigma Aldrich)(1 mg/ml) and bovine serum albumin (Sigma Aldrich) (2 mg/ml). […]
Confluent myometrial cells were treated with/without OT (100 nM) for 1 hour before 3 PBS washes and the addition of […] IBMX (3-isobutyl-1-methylxanthine) in PBS for 5 minutes at 37° C. […] Lysates were normalized to protein concentration determined by Coomassie (Bradford) Protein Assay Kit and analysed as per manufacturers' protocol (Cisbio Gαs dynamic assay) using a PHERAstar FSX.

EP2 [4] = molecular target: T1, EP2; test: Intracellular calcium in myometrial cells with/without oxytocin pre-treatment; details: OT pre-treatment 1 hour, 100 nM; butaprost 10 μM, AH13205 10 μM, PGN9856i 100 nM; FIG. 11
Experimental: Intracellular calcium response in myometrial cells with/without OT pre-treatment (1 hour, 100 nM) stimulated with butaprost (10 μM), AH13205 (10 μM) or PGN9856i (100 nM). Data are the mean of the maximum fluorescence intensity for each cell measured normalised to background (F-FO). Shown as fold-change over butaprost response. One-way ANOVA with Dunnett's multiple comparison post-hoc test: ##p<0.01. One-sample t-test: *p<0.05.

T1 sequence (P43116 whole entry): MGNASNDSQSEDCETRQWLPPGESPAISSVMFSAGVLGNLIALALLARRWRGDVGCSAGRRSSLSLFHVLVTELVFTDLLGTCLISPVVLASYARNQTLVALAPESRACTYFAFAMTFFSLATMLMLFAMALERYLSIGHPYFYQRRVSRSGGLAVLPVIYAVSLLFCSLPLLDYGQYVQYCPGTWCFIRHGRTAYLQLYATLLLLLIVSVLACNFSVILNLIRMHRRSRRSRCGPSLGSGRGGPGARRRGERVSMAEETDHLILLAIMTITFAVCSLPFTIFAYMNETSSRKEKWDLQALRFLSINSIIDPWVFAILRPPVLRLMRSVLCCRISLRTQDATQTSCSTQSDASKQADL

Row | SMILES | effect of OTR activation on ligand's ability to increase intracellular cAMP (EP2 [1]) | effect of OT pre-treatment on ligand-induced PGE2 release (EP2 [2]) | release of intracellular cAMP (EP2 [3]) | calcium response with OT pre-treatment (EP2 [4]) | effect on OT-mediated PGE2 release (EP2 [2]; myometrial cells treated with OT (100 nM, 1 hour), then PGN9856i 100 nM for 6 hours, FIG. 13)
1 | CCCC1([C@H](O)C/C=C/[C@H]2[C@H](O)CC(=O)[C@@H]2CCCCCCC(=O)OC)CCC1 [butaprost] | significantly reduced | significantly increased by OT | able to elicit release of intracellular cAMP | significantly enhance the calcium response | –
2 | CC(C)OC(=O)COc1cccc(NC(=O)c2cc(-c3cccc(F)c3)ccc2F)c1 [PGN9856i, propan-2-yl 2-(3-{3′,4-difluoro-[1,1′-biphenyl]-3-amido}phenoxy)acetate] | significantly reduced | unchanged by OT pre-treatment | able to elicit release of intracellular cAMP | unable to elicit a response | significantly reduce OT-mediated PGE2 release

Source: patent US20230285347A1, “Preterm Labour with Prostaglandin E2 Receptor Agonists” (IMPERIAL COLLEGE INNOVATIONS LIMITED, priority 2020, published 2023)
